Experimental data from US20260347353A1, “INDOLIZINE DERIVATIVES FOR TREATING CANCER” (Antares Therapeutics, Inc., priority 2022, published 2026).

How the values were obtained:
[1] = biological target: T1, p53 Y220C mutant protein (amino acid residues 94-293) (Homo sapiens, UniProt P04637, Y220C); experiment: Surface Plasmon Resonance (SPR) assay, p53 Y220C Kd_kinetic; conditions: multi-cycle kinetics, 16 or 20 °C, pH 7.5, 1:1 binding model
T1 construct: p53 Y220C mutant protein (amino acid residues 94-293)
Description: SPR experiments are performed on a Biacore 8K instrument. […] Compounds are 2-fold, 7-point serial diluted; the top concentration varies depending on the potency. Compound binding affinities are measured in the multi-cycle kinetics mode, at 30 μL/min flow rate with 60 seconds association time and 120 seconds dissociation time. The running buffer contains 50 mM Tris, pH 7.5, 100 mM NaCl, 1 mM DTT, 0.01% Brij35, 0.05% Tween-20 and 1% DMSO. The assay temperature is maintained at 16 or 20 °C and data are fit into the 1:1 binding model using the Biacore Insight Evaluation software.

p53 Y220C = p53 Y220C (Homo sapiens, UniProt P04637, Y220C); experiment: Luciferase Reporter Assay, p53 Y220C (NCIH1299 cells with inducible p53 Y220C and p53 response element-luciferase); assay type: cell-based; conditions: 6 hour compound treatment, read-out: Luc P53 Y220C AC50
Description: Luciferase reporter (Luc) driven by p53 response element (LTV-p53-Luc (SKU #: LTLR007); G&P Biosciences) and inducible p53 Y220C construct (Tet-One inducible expression system; Takara) were stably expressed in NCIH1299 cells by lentiviral transduction. The cells were then used for p53 reporter assay. 5,000 cells were seeded in each well of 384 plate and cultured in 0.5 ug/mL doxycycline (D3072; Sigma) containing medium for 24 hours before compound treatment. After 6 hour of compound treatment, equal volume of One-Glo reagent (E6110; Promega) was added to each well and the plate was incubated for 5 minutes with shaking at room temperature. The luciferase activity was immediately measured with PheraStar microplate reader. Luciferase activity was stimulated by 10 uM of a tool compound as positive control and AC50 was calculated.

NUGC3 cells (p53 Y220C) = experiment: Cell Proliferation Assay (CellTiter-Glo), NUGC3 p53 Y220C; assay type: cell-based; conditions: Homo sapiens, NUGC-3, 120 h, 5 days, read-out: CTG NUGC3 P53 Y220C IC50
Description: Inducible p53 Y220C and R273H constructs (Tet-One inducible expression system; Takara) were stably expressed in NCIH1299 cells by lentiviral transduction. NUGC3, A549, BxPC3, T3M4, HuH7, HCC2935, MFE296, NCIH1299, NCIH1299-inducible p53 Y220C, and NCIH1299-inducible p53 R273H cell lines were used for cell proliferation assay. 250-500 cells were seeded in each well of 384 plate and then compounds were dispensed into each well using Echo or Tecan. After 5 days of incubation, equal volume of CellTiter-Glo reagent (G7570; Promega) was added into each well and the plate was incubated at room temperature for 10 minutes with shaking. The luminescent signal was measured by PheraStar microplate reader and IC50 was calculated.

T1 sequence (P04637 94-293, stated change not applied): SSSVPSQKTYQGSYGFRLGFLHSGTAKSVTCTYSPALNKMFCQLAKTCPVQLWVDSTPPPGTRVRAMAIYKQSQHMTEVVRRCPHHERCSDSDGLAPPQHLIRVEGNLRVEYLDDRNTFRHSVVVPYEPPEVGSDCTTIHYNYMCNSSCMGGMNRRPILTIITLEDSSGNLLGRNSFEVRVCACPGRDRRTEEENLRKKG

Row | Compound | Kd [1] [nM] | AC50 (p53 Y220C) [nM] | IC50 (NUGC3 cells (p53 Y220C)) [nM]
1 | CN1CC[C@@H](Nc2cccn3c(SC(F)(F)F)c(-c4noc(CNC(=O)[C@@H]5COCCN5C)n4)cc23)[C@@H](F)C1 [Example 69, (3S)—N-{[3-(8-{[(3S,4R)-3-fluoro-1-methylpiperidin-4-yl]amino}-3-[(trifluoromethyl)sulfanyl]indolizin-2-yl)-1,2,4-oxadiazol-5-yl]methyl}-4-methylmorpholine-3-carboxamide] | 10 to 100 | ≥ 3000 | ≥ 3000
2 | CN1CC[C@@H](Nc2cccn3c(SC(F)(F)F)c(-c4noc(CNC(=O)c5noc(N(C)C)n5)n4)cc23)[C@@H](F)C1 [Example 91] | < 10 | < 750 | 
3 | CN1CC[C@@H](Nc2cccn3c(SC(F)(F)F)c(-c4noc([C@@H](CO)NC(=O)C5CC5)n4)cc23)[C@@H](F)C1 [Example 53, N-[(1R)-1-[3-(8-{[(3S,4R)-3-fluoro-1-methylpiperidin-4-yl]amino}-3-[(trifluoromethyl)sulfanyl]indolizin-2-yl)-1,2,4-oxadiazol-5-yl]-2-hydroxyethyl]cyclopropanecarboxamide] | 10 to 100 | ≥ 3000 | ≥ 3000
4 | CNC(=O)c1coc(NCc2nc(-c3cc4c(N[C@@H]5CCN(C)C[C@@H]5F)cccn4c3SC(F)(F)F)no2)n1 [Example 81] | < 10 | < 750 | 750 to 1500
5 | CN1CC[C@@H](Nc2cccn3c(SC(F)(F)F)c(-c4cnc(CNC(=O)C5CC5)o4)cc23)[C@@H](F)C1 [Example 84] | 10 to 100 | ≥ 3000 | ≥ 3000
6 | CN1CC[C@@H](Nc2cccn3c(SC(F)(F)F)c(-c4noc(CNC(=O)c5ncn[nH]5)n4)cc23)[C@@H](F)C1 [Example 75] | < 10 | 750 to 1500 | 750 to 1500

Further lines, with some results ahead:

Row | Kd [1] [nM] | AC50 (p53 Y220C) [nM] | Compound | IC50 (NUGC3 cells (p53 Y220C)) [nM]
7 | < 10 | < 750 | CN1CC[C@@H](Nc2cccn3c(SC(F)(F)F)c(-c4cc(CNC(=O)c5cnn(C(C)(C)C)c5)no4)cc23)[C@@H](F)C1 [Example 89] | < 750
8 | 10 to 100 | < 750 | CN1CC[C@@H](Nc2cccn3c(SC(F)(F)F)c(-c4cc(CNC(=O)c5cnn(C(C)(C)C)c5)on4)cc23)[C@@H](F)C1 [Example 88] | 
9 | < 10 | 750 to 1500 | CN1CC[C@@H](Nc2cccn3c(SC(F)(F)F)c(-c4cc(CNC(=O)C5CC5)no4)cc23)[C@@H](F)C1 [Example 87] | 
10 | < 10 | < 750 | CN1CC[C@@H](Nc2cccn3c(SC(F)(F)F)c(-c4noc(CNC(=O)c5ncn(C)n5)n4)cc23)[C@@H](F)C1 [Example 78] | < 750
11 | < 10 | < 750 | CN1CC[C@@H](Nc2cccn3c(SC(F)(F)F)c(-c4noc(CNC(=O)c5ccn(C)c5)n4)cc23)[C@@H](F)C1 [Example 86] | 
12 | < 10 | < 750 | CN1CC[C@@H](Nc2cccn3c(SC(F)(F)F)c(-c4cc(CNC(=O)c5cnc(N(C)C)o5)no4)cc23)[C@@H](F)C1 [Example 90] | 
13 | < 10 | < 750 | CN1CC[C@@H](Nc2cccn3c(SC(F)(F)F)c(-c4noc(CNC(=O)c5cnn(C)c5)n4)cc23)[C@@H](F)C1 [Example 85] | < 750
14 | < 10 | < 750 | CN1CC[C@@H](Nc2cccn3c(SC(F)(F)F)c(-c4noc(CNC(=O)c5cnn(C)n5)n4)cc23)[C@@H](F)C1 [Example 79] | < 750
15 | 10 to 100 | ≥ 3000 | CN1CC[C@@H](Nc2cccn3c(SC(F)(F)F)c(-c4noc(CNC(=O)[C@H]5COCCN5C)n4)cc23)[C@@H](F)C1 [Example 68, (3R)-N-{[3-(8-{[(3S,4R)-3-fluoro-1-methylpiperidin-4-yl]amino}-3-[(trifluoromethyl)sulfanyl]indolizin-2-yl)-1,2,4-oxadiazol-5-yl]methyl}-4-methylmorpholine-3-carboxamide] | ≥ 3000
